Values of other authors, collected in article PMC10034008, “Pretargeted imaging beyond the blood–brain barrier” (RSC Medicinal Chemistry, 2022).

Design: method as in ESI 3, 4
Details: irreversible tracers in their respective target regions; ref ESI 3, 4

Row | Structure (SMILES) | trapping rate k3 [min⁻¹]
1 | [11CH3]N1CN(c2ccccc2)C2(CCN(CCCC(=O)c3ccc(F)cc3)CC2)C1=O [N-[11C]methylspiperone] | 0.06
2 | CCC(=O)OC1CCN([11CH3])CC1 [[11C]PMP] | 0.03 to 0.35
